# According to patent publication US20110319352A1, “Compounds That Bind Oxysterol Binding Proteins, and Methods of Use Thereof” (President and Fellows of Harvard College, priority 2008, published 2011):
# Residues, ends and D or L forms follow the SMILES beside them. *: point of attachment. Cbz = O=C(OCc1ccccc1)*
# How the values were obtained:
# [1] = test system: HCT-116 p21−/− shNT and shOSBP cells; test: CRAM cytotoxicity after shRNA knockdown of OSBP, HCT-116 p21−/−; format: cell-based; details: HCT-116 p21−/−; for sensitization (GI50 shift) by OSBP knockdown: OSBP knockdown by 84%
# Source text: FIG. 17 depicts CRAM cytotoxicity in shRNA OSBP knockdown cell lines. A: Dose curves from a representative experiment. B: GI50 values of CRAMs and control compounds in HCT-116 p21−/− shNT and shOSBP cells and densitometric analysis of OSBP-levels. shNT=non-targeting shRNA, shOSBP=OSBP-targeting shRNA; * P=0.0006 (n=4), ** P=0.0002 (n=3), *** P=0.0003 (n=3), and **** P≦0.0001 (n=7) compared to shNT-treated cells.
# To determine whether the cytotoxicity of CRAMs depends on the amount of OSBP in cells, the effects of shRNA knockdown of OSBP on the growth inhibitory activity of CRAMs was measured. Treatment of HCT-116 p21^−/− cells with shRNA targeted to OSBP [24] caused an 84% reduction in the level of OSBP as measured by western blot (FIG. 17B, bottom right).
# recombinant OSBP-myc-his = molecular target: T1, recombinant OSBP-myc-his (Homo sapiens, UniProt P22059); test: competitive binding assay, displacement of [3H]-25-OHC from OSBP (charcoal-dextran, liquid scintillation counting); details: for displacement of OSBP-bound [3H]-25-OHC: at low micromolar-concentrations
# T1 construct: made in house; host or cells: HEK-293T (crude S100 lysate, not purified)
# T1 sequence (P22059 1-807): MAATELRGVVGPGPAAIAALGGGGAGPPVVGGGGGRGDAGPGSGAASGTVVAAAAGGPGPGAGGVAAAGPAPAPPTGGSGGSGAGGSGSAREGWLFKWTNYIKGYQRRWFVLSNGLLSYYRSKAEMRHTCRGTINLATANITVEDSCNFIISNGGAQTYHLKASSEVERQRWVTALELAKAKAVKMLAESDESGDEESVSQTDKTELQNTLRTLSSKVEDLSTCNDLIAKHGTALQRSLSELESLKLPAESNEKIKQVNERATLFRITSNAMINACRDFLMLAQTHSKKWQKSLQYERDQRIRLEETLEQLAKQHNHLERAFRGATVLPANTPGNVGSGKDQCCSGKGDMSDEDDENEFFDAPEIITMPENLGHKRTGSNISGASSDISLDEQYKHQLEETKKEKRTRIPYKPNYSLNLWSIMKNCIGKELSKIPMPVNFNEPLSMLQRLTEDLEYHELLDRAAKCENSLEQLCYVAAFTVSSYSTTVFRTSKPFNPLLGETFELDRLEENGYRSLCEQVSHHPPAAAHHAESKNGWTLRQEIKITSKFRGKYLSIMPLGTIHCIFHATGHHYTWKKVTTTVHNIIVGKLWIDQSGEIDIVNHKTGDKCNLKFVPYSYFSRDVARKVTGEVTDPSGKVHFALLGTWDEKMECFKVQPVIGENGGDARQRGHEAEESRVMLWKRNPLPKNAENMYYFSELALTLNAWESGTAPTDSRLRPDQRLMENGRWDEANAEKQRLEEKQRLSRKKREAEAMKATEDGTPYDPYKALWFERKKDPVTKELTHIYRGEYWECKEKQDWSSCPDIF
# Procedure: It has been determined that CRAMs inhibit the binding of radiolabelled 25-OHC ([^3H]-25-OHC) to recombinant OSBP-myc-his and ORP4-myc-his overexpressed in HEK-293T lysate (FIG. 18). It is known that 25-hydroxycholesterol is a high affinity ligand for OSBP and ORP4. Increasing concentrations of CRAMs or OSW-1 analogs were incubated with 20 nM [^3H]-25-OHC in OSBP-myc-his or ORP4-myc-his S100 lysate for 16 h at 4° C. after which unbound sterol was removed using charcoal-dextran and the bound sterol quantified by LCS (liquid scintillation counting).
# These experiments provide evidence that CRAMs are ligands of OSBP and ORP4, and in the case of 1 and 2, they are high affinity ligands.
# To measure the Kis of CRAMs to OSBP and ORP4 reported above, a previously reported dextran-coated charcoal assay was adapted into a 96-well format. […] To solve these limitations a binding SPA (scintillation proximity assay) for OSBP/ORPs (FIG. 26) will be developed.
# HCT-116 p21−/− cells [2] = test: growth inhibition of HCT-116 cells lacking p21 (p21 dependence); format: cell-based; details: for dependence of growth inhibition on p21 status: HCT-116 p21−/− versus p21+/+
# Source text: Values are mean±SD of 3 individual experiments each performed in sextublicate or from a single experiment performed in sextublicate. Values for […] were reported in the literature (see Beutler J A, Shoemaker R H, Johnson T, Boyd M R. “Cytotoxic geranyl stilbenes from Macaranga schweinfurthii,” J. Nat. Prod. 1998, 61(12), 1509-12).
# [5] […] This shared p21 differential cytotoxicity supports the idea of a common CRAM mechanism of action and likely similar target. […] However, caution has to be exercised in concluding that compounds found to be selective for p21 deficient HCT-116 cells are truly synthetic lethal with p21. It was recently reported that compounds shown to be hypersensitive to HCT-116 p21^−/− cells was actually due to an overexpression of p53 in that cell line. Subsequent siRNA knockdown of p53 eliminated the apparent p21 synthetic lethality.
# pERK1/2 in HCT-116 cells = test: Western blot of pERK1/2; format: cell-based; details: cephalostatin 1 50 nM, 25-OHC 20 μM 12 h
# Procedure: FIG. 21 depicts Western blot and densitometry analysis of pERK1/2 in HCT-116 cells during treatment with 50 nM cephalostatin 1. 25-OHC (20 μM) and okadaic acid (OKA, 10 nM) treatments were for 12 h and 24 h, respectively.
# As another test of whether CRAMs perturb a known OSBP function, it was determined whether CRAMs induce changes to the phosphorylation state of ERK1/2. As mentioned above, 25-OHC binds OSBP and causes disruption of a complex between OSBP and the phosphatases HePTP and PP2A. This blocks dephosphorylation of pERK1/2, leading to a persistence of pERK1/2. Opposing this effect is cholesterol, which binds OSBP, inducing formation of the OSBP-HePTP-PP2A ternary complex, causing ERK1/2 dephosphorylation (FIG. 13).
# [3] = test system: OSBP localization in HCT-116 p21+/+ cells; test: OSBP localization by immunofluorescence confocal microscopy; format: cell-based; details: compound exposure 4 h (OSW-1 1 nM)
# Procedure: FIG. 22 depicts OSBP localization in HCT-116 p21^+/+ cells imaged by immunofluorescence confocal microscopy. Immunofluorescence was used to image OSBP and the trans-Golgi protein p230 after compound exposure for 4 h. […] was labeled with Hoescht 33342.
# As another way to investigate how CRAMs may affect OSBP, immunofluorescence (IF) experiments were performed in HCT-116 p21^+/+ cells to determine whether OSBP localization was altered upon treatment with different CRAMs. In untreated cells, OSBP resides largely at ER/cytoplasmic sites with a partial localization at the Golgi (FIG. 22A).
# This translocation has been reported many times in the literature as an effect of 25-OHC on OSBP. Treatment of cells with OSW-1 at 1 nM for 4 h caused a dramatic and unprecedented effect on OSBP localization (FIG. 22C). […] In this case p230 has been dispersed (see […]). The translocation of OSBP induced by 2 is distinct from that of 25-OHC. […] They also reveal that the effects on OSBP translocation by 1 and 2 are distinct from 25-OHC.
# OSBP protein levels = OSBP protein levels by western blot; format: cell-based
# Procedure: One unanticipated discovery from the IF studies was that, after several hours, CRAM treatment of cells caused a significant reduction in the intensity of the OSBP fluorescent signal. This could mean that CRAMs are inducing a reduction in OSBP protein levels: an effect not observed with 25-OHC. The amount of OSBP protein in cells exposed to CRAMs was measured by western blot. […] Cephalostatin 1 induced a 70% reduction in OSBP at 12 h, and OSW-1 caused a 69% reduction in OSBP at 24 h. […] This supports a situation where reduction of OSBP levels by 1 and 2 is a result of a proteasome-dependent degradation process. One possible scenario is that 1 and 2 are also causing protein level reductions of ORPs and this is the source of cytotoxicity of CRAMs.
# HCT-116 p21−/− cells [4] = details: cited from earlier work
# HCT-116 p21+/+ cells = details: literature value [6]; cited from earlier work
# NCI-60 = details: read-out: GI50, average against the NCI-60; cited from earlier work
# tumor xenograft = details: i.p. 9.3 mg/kg (Q2D×4); cited from earlier work
# [5] = cytotoxicity of 25-OHC (cells not named); format: cell-based; details: doses up to 1000 times its OSBP Kd
molecule,measurement,setting,value
"CC(=O)O[C@H]1C(=O)[C@@]2(C)[C@H]([C@H](OC(=O)c3ccccc3)[C@]3(O)C[C@H](OC(=O)[C@H](O)[C@@H](NC(=O)c4ccccc4)c4ccccc4)C(C)=C1C3(C)C)[C@]1(OC(C)=O)CO[C@@H]1C[C@@H]2O [taxol, reference compound]",sensitization by OSBP knockdown,[1],does not sensitize
"C[C@H]1CCC/C=C/[C@@H]2C[C@H](O)C[C@H]2[C@H](O)/C=C/C(=O)O1 [brefeldin A, reference compound]",sensitization by OSBP knockdown,[1],does not sensitize
C[C@@H]1[C@]2(O[C@H]3C=C4[C@@H]5CC[C@H]6Cc7nc8c(nc7C[C@]6(C)[C@H]5C[C@@H](O)[C@]4(C)[C@]31O)C[C@@H]1CC[C@H]3C4=CC[C@@H]5[C@H](C)[C@@]6(OC[C@]45C(=O)C[C@@H]3[C@@]1(C)C8)OC(C)(C)C[C@H]6O)O[C@](C)(CO)C[C@H]2O [Cephalostatin 1],Ki,"recombinant OSBP-myc-his; 20 nM [3H]-25-OHC, OSBP-myc-his S100 lysate (HEK-293T), 16 h at 4° C., read-out: Ki, displacing OSBP-bound [3H]-25-OHC",50 nM
same,"differential GI50, HCT-116 p21−/− versus p21+/+",HCT-116 p21−/− cells [2]; 48 h (FIG. 14),44 fold
same,sensitization (GI50 shift) by OSBP knockdown,[1],3.5 fold
same,pERK1/2 levels,pERK1/2 in HCT-116 cells,significant increase in pERK1/2 starting at 12 h and persisting for at least 24 h
same,effect on OSBP localization,[3],caused a significant amount of OSBP to co-localize with the plasma membrane
same,effect on OSBP protein levels,OSBP protein levels,time-dependent reduction in OSBP protein levels
same,reduction in OSBP,OSBP protein levels; at 12 h,70%
"CC(C)C[C@H](NC(=O)[C@H](Cc1ccccc1)NC(=O)c1cnccn1)B(O)O [bortezomib, reference compound]",sensitization by OSBP knockdown,[1],does not sensitize
"COc1cc(/C=C/c2cc(O)c(C/C=C(\C)CCC=C(C)C)c(O)c2)cc2c1O[C@]1(C)C[C@@H](O)[C@@H](O)C(C)(C)[C@H]1C2 [Schweinfurthin B, schweinfurthin B, reference compound]",effect on OSBP localization,[3],"induced OSBP translocation, but in a manner similar to the 25-OHC effect"
CC(/C=C/C=C(C)/C=C/C=C(\C)C(=O)O)=C1/C(=O)C[C@H]2[C@@]3(C)CCC(=O)C(C)(C)[C@@H]3CC[C@]12C [(−)-stellettin E],GI50,HCT-116 p21−/− cells [4]; literature value [6],39 nM
same,more cytotoxic to HCT-116 p21−/− compared to parental HCT-116,"HCT-116 p21−/− cells [4]; ratio of GI50, literature",117 times
same,more active in HCT-116 lacking the p21 protein,HCT-116 p21−/− cells [4]; reported in the literature,117 fold
same,GI50,HCT-116 p21+/+ cells,4570 nM
schweinfurthin A,displacement of OSBP-bound [3H]-25-OHC,recombinant OSBP-myc-his,displaced the bound ligand
same,dependence of growth inhibition on p21 status,HCT-116 p21−/− cells [2],selectively growth inhibitory for HCT-116 cells lacking p21
same,sensitization by OSBP knockdown,[1],sensitizes
same,sensitization (GI50 shift) by OSBP knockdown,[1],8.9 fold
same,GI50,NCI-60,360 nM
same,toxicity in xenograft mice,tumor xenograft,without overt toxicity
same,tumor volume,tumor xenograft,reduction in tumor volume compared to vehicle-treated controls
"CC(C)C[C@@H](C=O)NC(=O)[C@H](CC(C)C)NC(=O)[C@H](CC(C)C)NC(=O)OCc1ccccc1 [MG132, reference compound] (Cbz-Leu-Leu-Leu-aldehyde)",effect on OSBP protein levels,OSBP protein levels,complete rescue of OSBP levels
"C[C@H](CCCC(C)(C)O)[C@H]1CC[C@H]2[C@@H]3CC=C4C[C@@H](O)CC[C@]4(C)[C@H]3CC[C@]12C [25-OHC, 25-hydroxycholesterol, reference compound]",pERK1/2 levels,pERK1/2 in HCT-116 cells,had the same effect as CRAMs
same,effect on OSBP localization,[3],OSBP translocates to the Golgi
same,effect on OSBP protein levels,OSBP protein levels,not observed
same,cytotoxicity,[5],not cytotoxic
ritterazine B,displacement of OSBP-bound [3H]-25-OHC,recombinant OSBP-myc-his,displaced the bound ligand
same,dependence of growth inhibition on p21 status,HCT-116 p21−/− cells [2],selectively growth inhibitory for HCT-116 cells lacking p21
same,sensitization by OSBP knockdown,[1],sensitized
